Laboratory results published in article PMC6359675, “Functionalization of the Chalcone Scaffold for the Discovery of Novel Lead Compounds Targeting Fungal Infections” (Molecules, 2019).
Several values for one entry are separate records, joined by “and”; a condition that tells them apart may be missing. Equal entries are not always repeated. Where two headings read alike, the source gives them in different places.

Legend:
[1] = test system: C. krusei; test: In vitro susceptibility testing, C. krusei clinical isolate; type: cell-based; settings: Pichia kudriavzevii
Text: (§1) The yeasts included in the present study were Candida albicans ATCC 10231 (American Type Culture Collection) and a collection of yeasts recovered from a variety of clinical specimens, i.e., blood, urine, genital swabs, bronchoalveolar lavage, nail specimens, collected at the Microbiology Unit, St. Orsola Malpighi University Hospital, Bologna, Italy. The clinical strain isolates were identified by standard procedures, including colony morphology on chromogenic agar (CHROMagar Candida medium, Becton Dickinson, Heidelberg, Germany) and confirmed by MALDI Biotyper System using matrix-assisted laser desorption ionization–time of flight mass spectrometry (MALDI-TOF MS, Bruker Daltonik, GmbH, Germany).
(§2) The in vitro antifungal activity of the chalcones was evaluated by a microdilution broth method in accordance with the guidelines provided by the EUCAST Edef 7.3 [22]. Briefly, all strains were cultured on Sabauraud dextrose, then inocula, prepared at 0.5 McFarland, were diluted 1:20 in RPMI-1640 medium (Gibco®, ThermoFisher Scientific Inc., Waltham, MA, USA), containing glucose 2%, 0.3% levo-glutamine buffered to pH 7.0 with 0.165 M 3-(N-morpholino)propanesulfonic acid (MOPS) to yield 1-5 × 10^5 cells/mL. A total of 100 µL of the yeast suspension was inoculated in a 96-well microplate and incubated with 100 µL of serially 2-fold dilution of the compound in the range 200–6.25 µM. The following controls were included: yeast suspensions incubated in RPMI-1640 culture medium (positive growth control), or supplemented with dilutions of DMSO, or fluconazole (Sigma-Aldrich, St. Louis, MO, USA) as a commercial drug. To check the background turbidity of reagents and the sterility of the procedure, dilutions of each compound were incubated in RPMI-1640 culture medium, without yeast inoculum. The inoculated plate was incubated at 37 °C for 24 h, and subsequently the optical density at 630 nm was measured by the Multiskan Ascent microplate reader (Thermo Fisher Scientific Inc.). The effectiveness of the compounds was expressed as percent inhibition relative to the positive growth control when the inhibition […] the 50% at 100 µM. The IC50 value was determined by interpolation of the dose–response curves generated by plotting the percentages of growth inhibition, relative to the drug-free control (set to 100% of growth), as a function of the tested concentrations (on a logarithm scale). Statistical analysis was carried out by the nonlinear regression method using GraphPad Prism version 5.0 for Windows (GraphPad Software, San Diego, CA, USA). All assays were performed in triplicate and at least two independent experiments were carried out.

[2] = test system: C. tropicalis; test: In vitro susceptibility testing, C. tropicalis clinical isolate; type: cell-based; settings: Candida tropicalis
Text: as §1, §2

[3] = test system: R. mucilaginosa; test: In vitro susceptibility testing, R. mucilaginosa clinical isolate; type: cell-based
Text: as §1, §2

[4] = test system: C. neoformans; test: In vitro susceptibility testing, C. neoformans clinical isolate; type: cell-based; settings: Cryptococcus neoformans
Text: as §1, §2

[5] = test system: C. parapsilosis; test: In vitro susceptibility testing, C. parapsilosis clinical isolate; type: cell-based; settings: Lodderomyces parapsilosis
Text: as §1, §2

[6] = test system: C. utilis; test: In vitro susceptibility testing, C. utilis clinical isolate; type: cell-based; settings: Williopsis jadinii
Text: as §1, §2

[7] = test system: C. albicans; test: In vitro susceptibility testing, C. albicans clinical isolate; type: cell-based; settings: Candida albicans
Text: as §1, §2

[8] = test system: C. lusitaniae; test: In vitro susceptibility testing, C. lusitaniae clinical isolate; type: cell-based; settings: Clavispora lusitaniae
Text: as §1, §2

[9] = test system: C. albicans ATCC 10231; test: In vitro susceptibility testing, microdilution broth (EUCAST), C. albicans control strain; type: cell-based, Candida albicans; settings: Candida albicans; for inhibition at 100 µM: ATCC10231, 24 h
Experimental: as §2

[10] = test system: C. glabrata; test: In vitro susceptibility testing, C. glabrata clinical isolate; type: cell-based; settings: Nakaseomyces glabratus
Text: as §1, §2

[11] = Cytotoxicity test on Vero cells (WST8/CCK-8 cell viability); type: cell-based, African green monkey; settings: African green monkey, Vero cells (ATCC CCL-81), Vero cells, mean and 95% confidence interval
Experimental: (§3) African green monkey kidney cells (Vero ATCC CCL-81) were cultured in Eagle’s Minimal Essential Medium (MEM) (Sigma-Aldrich), supplemented with 10% fetal bovine serum (FBS) (Carlo Erba Reagents, Milan, Italy), 100 U/mL penicillin, and 100 µg/mL streptomycin at 37 °C with 5% CO2. For experiments, cells were seeded into 96-well plates at 10^4 cells/well, and incubated at 37 °C for 24 h. Following washes with PBS, cell monolayer was incubated with 100 µL of serially 2-fold dilution of the compound in the range 200–6.25 µM. Both untreated cells and cells incubated with medium containing solvent dilutions were included in each experiment as controls.
(§4) The cell viability was assessed by a WST8-based assay according to the manufacturer’s instructions (CCK-8, Cell Counting Kit-8, Dojindo Molecular Technologies, Rockville, MD, USA). After 72 h of incubation, culture medium was removed from each well, the monolayer was washed with PBS, and 100 µL of fresh medium containing 10 µL of CCK-8 solution were added. Following a 2 h at 37 °C, the absorbance was measured at 450/630 nm; data were calculated as the percentage of the cell viability relative to the untreated controls.

[12] = test system: Vero cells (ATCC CCL-81); test: as above; type: cell-based, African green monkey; settings: 72 h, up to the highest concentration of 200 μM
Experimental: as §3, §4

[13] = test system: S. clavata; test: In vitro susceptibility testing, S. clavata clinical isolate; type: cell-based
Text: as §1, §2

[14] = test system: C. albicans ATCC 10231; test: Agar-invasive hyphal growth (Spider agar assay); type: cell-based, Candida albicans; settings: compounds at IC50 values, three days at 37 °C
Experimental: Aliquots (2 µL) of a suspension of C. albicans ATCC 10231 (5 × 10^5 cells/mL) were spotted onto medium in triplicate and the morphology of growing colonies was observed following three days of incubation at 37 °C. Spider agar plates without chalcones, containing DMSO, served as the control. The presence of filaments at the colony edges was determined using a light microscope under 10× magnification.

[15] = test system: C. albicans ATCC 10231; test: Disruption of preformed mature biofilm (biofilm metabolic activity); type: cell-based, Candida albicans; settings: compounds added to preformed mature biofilm; statistically significant
[16] = clinical isolate, read-out: IC50 C. krusei
[17] = clinical isolate, read-out: IC50 C. tropicalis
[18] = clinical isolate, read-out: IC50 R. mucilaginosa
[19] = clinical isolate, read-out: IC50 C. neoformans
[20] = clinical isolate, read-out: IC50 C. parapsilosis
[21] = clinical isolate, read-out: IC50 C. utilis
[22] = clinical isolate, mean and 95% confidence interval, read-out: IC50 C. albicans
[23] = clinical isolate, read-out: IC50 C. lusitaniae
[24] = ATCC10231, C. albicans ATCC 10231, mean and 95% confidence interval, read-out: IC50
[25] = ATCC10231, C. albicans ATCC 10231, mean and 95% confidence interval, read-out: IC50 [μg/mL]
[26] = clinical isolate, read-out: IC50 C. glabrata
[27] = clinical isolate, read-out: IC50 S. clavata

| SMILES | IC50 [1, 16] | IC50 [2, 17] | IC50 [3, 18] | IC50 [4, 19] | IC50 [5, 20] | IC50 [6, 21] | IC50 [7, 22] | IC50 [8, 23] | IC50 [9, 24] [µM] | IC50 [9, 25] [µg/mL] | inhibition at 100 µM ([9]; C. albicans ATCC 10231) [%] | IC50 [10, 26] | CC50 at 72 h ([11]; read-out: CC50) [µM] | CC50 at 72 h ([11]; read-out: CC50 [μg/mL]) [µg/mL] | toxicity on Vero cells, in words [12] | IC50 [13, 27] | further results |
| --- | --- | --- | --- | --- | --- | --- | --- | --- | --- | --- | --- | --- | --- | --- | --- | --- | --- |
| O=C(/C=C/c1ccc(F)cc1)c1cc(Cl)ccc1O [Compound 4, (E)-1-(5-Chloro-2-hydroxyphenyl)-3-(4-fluorophenyl)prop-2-en-1-one] | 200 µM and 55.3 µg/mL | 200 µM and 55.3 µg/mL | 81.8 µM and 22.6 µg/mL | 27.1 µM and 7.5 µg/mL | > 200 µM and > 55.3 µg/mL | 96.7 µM and 26.8 µg/mL | 69.6 µM and 19.3 µg/mL | 34.6 µM and 9.6 µg/mL | 48.9 | 13.5 | 65.6 ± 3.3 | 200 µM and 55.3 µg/mL | > 200 | > 55.3 | did not display any toxicity | 200 µM and 55.3 µg/mL | – |
| COc1cc(OCCN2CCN(c3ccccc3)CC2)ccc1C(=O)/C=C/c1ccc(F)cc1 [Compound 28, (E)-3-(4-Fluorophenyl)-1-(2-methoxy-4-(2-(4-phenylpiperazin-1-yl)ethoxy)phenyl)prop-2-en-1-one] | 63.5 µM and 31.5 µg/mL | 26.6 µM and 13.2 µg/mL | 48.5 µM and 21.4 µg/mL | 17.7 µM and 8.8 µg/mL | 36.8 µM and 18.3 µg/mL | 29.6 µM and 14.7 µg/mL | 48.1 µM and 23.9 µg/mL | 26.5 µM and 13.1 µg/mL | 55.9 | 27.7 | 99.1 ± 0.7 | 37.1 µM and 18.4 µg/mL | > 200 | > 99.2 | did not display any toxicity | 27.9 µM and 13.8 µg/mL | IC50 ([1]; Table S1, best-fit, C. krusei, read-out: IC50): 63.6 µM; IC50 ([2]; Table S1, best-fit, C. tropicalis, read-out: IC50): 26.6 µM; IC50 ([3]; Table S2, best-fit, R. mucilaginosa, read-out: IC50): 46.2 µM; IC50 ([4]; Table S2, best-fit, C. neoformans, read-out: IC50): 17.7 µM; IC50 ([5]; Table S1, best-fit, C. parapsilosis, read-out: IC50): 31.3 µM; IC50 ([6]; Table S1, best-fit, C. utilis, read-out: IC50): 29.6 µM; IC50 ([7]; Table S1, best-fit, C. albicans clinical isolate, read-out: IC50): 48.1 µM; IC50 ([8]; Table S1, best-fit, C. lusitaniae, read-out: IC50): 26.5 µM; IC50 ([9]; ATCC10231, Table S1, variable slope best-fit, C. albicans ATCC 10231, read-out: IC50): 55.6 µM; IC50 ([10]; Table S1, best-fit, C. glabrata, read-out: IC50): 35.9 µM; IC50 ([13]; Table S2, best-fit, S. clavata, read-out: IC50): 28 µM |
| O=C(/C=C/c1cc(F)cc(F)c1)c1cc(Cl)ccc1O [Compound 5, (E)-1-(5-Chloro-2-hydroxyphenyl)-3-(3,5-difluorophenyl)prop-2-en-1-one] | > 58.9 µg/mL and > 200 µM | > 58.9 µg/mL and > 200 µM | 22.7 µg/mL and 76.9 µM | 5.3 µg/mL and 18 µM | 58.9 µg/mL and 200 µM | 29.5 µg/mL and 100 µM | 29.5 µg/mL and 100 µM | 14.1 µg/mL and 47.9 µM | 51.3 | 15.1 | 62 ± 1.5 | > 58.9 µg/mL and > 200 µM | > 200 | > 58.9 | did not display any toxicity | 29.5 µg/mL and 100 µM | invasion of Spider medium (filamentation) [14]: unable to penetrate the medium; reduction of metabolism of sessile cells in mature biofilm [15]: < 25% |
| C#CCOc1ccc(C(=O)/C=C/c2ccc([N+](=O)[O-])cc2)c(OC)c1 [Compound 14] | 200 µM and 67.5 µg/mL | 200 µM and 67.5 µg/mL | 100 µM and 33.7 µg/mL | 28.4 µM and 9.6 µg/mL | 100 µM and 33.7 µg/mL | 33.7 µM and 11.4 µg/mL | 31.4 µM and 10.6 µg/mL | 48.8 µM and 14.8 µg/mL | 39.2 | 11.5 | 63.6 ± 6.8 | 200 µM and 67.5 µg/mL | > 200 | > 58.6 | did not display any toxicity | 100 µM and 33.7 µg/mL | – |
